In patent publication US20090233299A1, “Physiogenomic Method for Predicting Statin Injury to Muscle and Muscle Side Effects” (GENOMAS, INC., priority 2005, published 2009):

What was measured:
[1] = human, in vivo
[2] = deaths associated with the drug before its withdrawal in August 2001; cited from earlier work

Question: For CCC(C)(C)C(=O)O[C@H]1C[C@@H](C)C=C2C=C[C@H](C)[C@H](CC[C@@H]3C[C@@H](O)CC(=O)O3)[C@H]21 [simvastatin], which “Median CK” value [1] is on record?
Answer: The value was 77 u/l.

Question: With CC(C)c1c(C(=O)Nc2ccccc2)c(-c2ccccc2)c(-c2ccc(F)cc2)n1CC[C@@H](O)C[C@@H](O)CC(=O)O [atorvastatin] as the compound, how does the “Median CK” value [1] read?
Answer: Its value is 84 u/l.

Question: Which rhabdomyolysis-related deaths [2] does the source give for COCc1c(C(C)C)nc(C(C)C)c(/C=C/[C@@H](O)C[C@@H](O)CC(=O)O)c1-c1ccc(F)cc1 [cerivastatin] here?
Answer: Its rhabdomyolysis-related deaths is “approx. 100”.
